# Columns and labels:
# Format in all cases: in vivo
# Scirpus juncoides = assay: Test Example 2: herbicidal activity, application during weed generation in submerged conditions; conditions: Eighteenth Table; application herbicide amount 320 g/ha
# Summary of the method: (§1)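 Alluvial soil in Wagner pots flooded to 4 cm water depth; seeds sown mixed, grown in greenhouse at 25–30 °C. At one- to two-leaf stage, emulsion diluted with water to the set rate (g/ha) was applied to the water surface. Effect scored 0–5 by herbicidal ratio three weeks later.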
# Monochoria vaginalis = assay: as above; conditions: Eighteenth Table; application herbicide amount 320 g/ha
# Summary of the method: as §1
# [1] = tested on: Echinochloa oryzacola Vasing.; assay: as above; conditions: Eighteenth Table; application herbicide amount 320 g/ha
# Summary of the method: as §1
# Chenopodium album = assay: Test Example 4: herbicidal effect by application to foliage (diluvial soil, plastic box); conditions: 320 g/ha; for herbicidal effect, O (Chenopodium album): application to foliage
# Summary of the method: (§2)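 Scores run from 0 (herbicidal ratio ≤5%) to 5 (≥90%, almost fully withered) and were assessed three weeks after foliar spraying. Seedlings had been raised for 14 days at 25-30° C in sterilized diluvial soil before treatment, with the emulsion diluted in water to the stated g/ha dose.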
# [2] = tested on: Echinochloa crus-galli var. crus-galli; assay: as above; conditions: 320 g/ha; for herbicidal effect, H (Echinochloa crus-galli var. crus-galli): application to foliage
# Summary of the method: as §2
# Amaranthus retroflexus = assay: as above; conditions: 320 g/ha; for herbicidal effect, N (Amaranthus retroflexus): application to foliage
# Summary of the method: as §2
# Apera spica-venti. = assay: as above; conditions: 320 g/ha; for herbicidal effect, L (Apera spica-venti.): application to foliage
# Summary of the method: as §2
# Digitaria ciliaris = assay: as above; conditions: 320 g/ha; for herbicidal effect, F (Digitaria ciliaris): application to foliage
# Summary of the method: as §2
# Setaria viridis = assay: as above; conditions: 320 g/ha; for herbicidal effect, G (Setaria viridis): application to foliage
# Summary of the method: as §2
# Lolium multiflorum Lam. = assay: as above; conditions: 320 g/ha; for herbicidal effect, K (Lolium multiflorum Lam.): application to foliage
# Summary of the method: as §2
# Avena fatua = assay: as above; conditions: 320 g/ha; for herbicidal effect, I (Avena fatua): application to foliage
# Summary of the method: as §2
# Stellaria media = assay: as above; conditions: 320 g/ha; for herbicidal effect, P (Stellaria media): application to foliage
# Summary of the method: as §2
# Galium spurium = assay: as above; conditions: 320 g/ha; for herbicidal effect, Q (Galium spurium): application to foliage
# Summary of the method: as §2
# Abutilon theophrasti = assay: as above; conditions: 320 g/ha; for herbicidal effect, M (Abutilon theophrasti): application to foliage
# Summary of the method: as §2
# Alopecurus myosuroides = assay: as above; conditions: 320 g/ha; for herbicidal effect, J (Alopecurus myosuroides): application to foliage
# Summary of the method: as §2
# Veronica persica = assay: as above; conditions: 320 g/ha; for herbicidal effect, R (Veronica persica): application to foliage
# Summary of the method: as §2
# Triticum aestivum = assay: Test Example 4: effect on crop by application to foliage (diluvial soil, plastic box); conditions: 320 g/ha; for effect on crop, e (Triticum aestivum): application to foliage
# Summary of the method: as §2
# Glycine max = assay: as above; conditions: 320 g/ha; for effect on crop, c (Glycine max): application to foliage
# Summary of the method: as §2
# [3] = tested on: Beta vulgaris ssp. vulgaris; assay: as above; conditions: 320 g/ha; for effect on crop, f (Beta vulgaris ssp. vulgaris): application to foliage
# Summary of the method: as §2
# [4] = tested on: directly sowed Oryza sativa; assay: as above; conditions: 320 g/ha; for effect on crop, d (directly sowed Oryza sativa): application to foliage
# Summary of the method: as §2
# Zea mays = assay: as above; conditions: 320 g/ha; for effect on crop, b (Zea mays): application to foliage
# Summary of the method: as §2
# Brassica campestris L. = assay: as above; conditions: 320 g/ha; for effect on crop, g (Brassica campestris L.): application to foliage
# Summary of the method: as §2
Compound,B (Scirpus juncoides) herbicidal ratio grade (Scirpus juncoides),C (Monochoria vaginalis) herbicidal ratio grade (Monochoria vaginalis),A (Echinochloa oryzicola Vasing.) herbicidal ratio grade [1],"herbicidal effect, O (Chenopodium album) (Chenopodium album)","herbicidal effect, H (Echinochloa crus-galli var. crus-galli) [2]","herbicidal effect, N (Amaranthus retroflexus) (Amaranthus retroflexus)","herbicidal effect, L (Apera spica-venti.) (Apera spica-venti.)","herbicidal effect, F (Digitaria ciliaris) (Digitaria ciliaris)","herbicidal effect, G (Setaria viridis) (Setaria viridis)","herbicidal effect, K (Lolium multiflorum Lam.) (Lolium multiflorum Lam.)","herbicidal effect, I (Avena fatua) (Avena fatua)","herbicidal effect, P (Stellaria media) (Stellaria media)","herbicidal effect, Q (Galium spurium) (Galium spurium)","herbicidal effect, M (Abutilon theophrasti) (Abutilon theophrasti)","herbicidal effect, J (Alopecurus myosuroides) (Alopecurus myosuroides)","herbicidal effect, R (Veronica persica) (Veronica persica)","effect on crop, e (Triticum aestivum) (Triticum aestivum)","effect on crop, c (Glycine max) (Glycine max)","effect on crop, f (Beta vulgaris ssp. vulgaris) [3]","effect on crop, d (directly sowed Oryza sativa) [4]",further results
COCCNc1nnc2c(C(=O)Nc3nnnn3C)ccc(C(F)(F)F)n12 [2-074],4 (Herbicidal ratio of 70% or more and less than 90%),3 (Herbicidal ratio of 40% or more and less than 70%),4 (Herbicidal ratio of 70% or more and less than 90%),,,,,,,,,,,,,,,,,,O (Chenopodium album) herbicidal effect grade (Chenopodium album; foliage application): 5 (Herbicidal ratio of 90% or more (almost completely withered)); H (Echinochloa crus-galli var. crus-galli) herbicidal effect grade ([2]; foliage application): 5 (Herbicidal ratio of 90% or more (almost completely withered)); N (Amaranthus retroflexus) herbicidal effect grade (Amaranthus retroflexus; foliage application): 5 (Herbicidal ratio of 90% or more (almost completely withered)); L (Apera spica-venti.) herbicidal effect grade (Apera spica-venti.; foliage application): 3 (Herbicidal ratio of 40% or more and less than 70%); F (Digitaria ciliaris) herbicidal effect grade (Digitaria ciliaris; foliage application): 5 (Herbicidal ratio of 90% or more (almost completely withered)); G (Setaria viridis) herbicidal effect grade (Setaria viridis; foliage application): 4 (Herbicidal ratio of 70% or more and less than 90%); K (Lolium multiflorum Lam.) herbicidal effect grade (Lolium multiflorum Lam.; foliage application): 3 (Herbicidal ratio of 40% or more and less than 70%); I (Avena fatua) herbicidal effect grade (Avena fatua; foliage application): 4 (Herbicidal ratio of 70% or more and less than 90%); P (Stellaria media) herbicidal effect grade (Stellaria media; foliage application): 4 (Herbicidal ratio of 70% or more and less than 90%); Q (Galium spurium) herbicidal effect grade (Galium spurium; foliage application): 3 (Herbicidal ratio of 40% or more and less than 70%); M (Abutilon theophrasti) herbicidal effect grade (Abutilon theophrasti; foliage application): 4 (Herbicidal ratio of 70% or more and less than 90%); J (Alopecurus myosuroides) herbicidal effect grade (Alopecurus myosuroides; foliage application): 3 (Herbicidal ratio of 40% or more and less than 70%); R (Veronica persica) herbicidal effect grade (Veronica persica; foliage application): 5 (Herbicidal ratio of 90% or more (almost completely withered)); e (Triticum aestivum) effect on crop grade (Triticum aestivum; foliage application): 3 (Herbicidal ratio of 40% or more and less than 70%); c (Glycine max) effect on crop grade (Glycine max; foliage application): 3 (Herbicidal ratio of 40% or more and less than 70%); f (Beta vulgaris ssp. vulgaris) effect on crop grade ([3]; foliage application): 5 (Herbicidal ratio of 90% or more (almost completely withered)); d (directly sowed Oryza sativa) effect on crop grade ([4]; foliage application): 4 (Herbicidal ratio of 70% or more and less than 90%); b (Zea mays) effect on crop grade (Zea mays; foliage application): 5 (Herbicidal ratio of 90% or more (almost completely withered)); g (Brassica campestris L.) effect on crop grade (Brassica campestris L.; foliage application): 4 (Herbicidal ratio of 70% or more and less than 90%)
Cn1nnnc1NC(=O)c1ccc(C(F)(F)F)n2c(N3CCOCC3)nnc12 [2-075],5 (Herbicidal ratio of 90% or more (almost completely withered)),5 (Herbicidal ratio of 90% or more (almost completely withered)),5 (Herbicidal ratio of 90% or more (almost completely withered)),5 (Herbicidal ratio of 90% or more (almost completely withered)),5 (Herbicidal ratio of 90% or more (almost completely withered)),5 (Herbicidal ratio of 90% or more (almost completely withered)),4 (Herbicidal ratio of 70% or more and less than 90%),5 (Herbicidal ratio of 90% or more (almost completely withered)),5 (Herbicidal ratio of 90% or more (almost completely withered)),4 (Herbicidal ratio of 70% or more and less than 90%),5 (Herbicidal ratio of 90% or more (almost completely withered)),5 (Herbicidal ratio of 90% or more (almost completely withered)),4 (Herbicidal ratio of 70% or more and less than 90%),5 (Herbicidal ratio of 90% or more (almost completely withered)),4 (Herbicidal ratio of 70% or more and less than 90%),5 (Herbicidal ratio of 90% or more (almost completely withered)),4 (Herbicidal ratio of 70% or more and less than 90%),3 (Herbicidal ratio of 40% or more and less than 70%),5 (Herbicidal ratio of 90% or more (almost completely withered)),5 (Herbicidal ratio of 90% or more (almost completely withered)),"effect on crop, b (Zea mays) (Zea mays): 5 (Herbicidal ratio of 90% or more (almost completely withered)); effect on crop, g (Brassica campestris L.) (Brassica campestris L.): 5 (Herbicidal ratio of 90% or more (almost completely withered))"
Cn1nnnc1NC(=O)c1ccc(C(F)(F)F)n2c(SCc3ccccc3)nnc12 [2-076],3 (Herbicidal ratio of 40% or more and less than 70%),2 (Herbicidal ratio of 20% or more and less than 40%),2 (Herbicidal ratio of 20% or more and less than 40%),5 (Herbicidal ratio of 90% or more (almost completely withered)),5 (Herbicidal ratio of 90% or more (almost completely withered)),5 (Herbicidal ratio of 90% or more (almost completely withered)),2 (Herbicidal ratio of 20% or more and less than 40%),3 (Herbicidal ratio of 40% or more and less than 70%),3 (Herbicidal ratio of 40% or more and less than 70%),1 (Herbicidal ratio of 5% or more and less than 20%),1 (Herbicidal ratio of 5% or more and less than 20%),5 (Herbicidal ratio of 90% or more (almost completely withered)),3 (Herbicidal ratio of 40% or more and less than 70%),4 (Herbicidal ratio of 70% or more and less than 90%),1 (Herbicidal ratio of 5% or more and less than 20%),5 (Herbicidal ratio of 90% or more (almost completely withered)),0 (Herbicidal ratio of 5% or less (almost no effect)),0 (Herbicidal ratio of 5% or less (almost no effect)),5 (Herbicidal ratio of 90% or more (almost completely withered)),1 (Herbicidal ratio of 5% or more and less than 20%),"effect on crop, b (Zea mays) (Zea mays): 1 (Herbicidal ratio of 5% or more and less than 20%); effect on crop, g (Brassica campestris L.) (Brassica campestris L.): 4 (Herbicidal ratio of 70% or more and less than 90%)"
COc1ccc(CSc2nnc3c(C(=O)Nc4nnnn4C)ccc(C(F)(F)F)n23)cc1 [2-077],2 (Herbicidal ratio of 20% or more and less than 40%),2 (Herbicidal ratio of 20% or more and less than 40%),2 (Herbicidal ratio of 20% or more and less than 40%),5 (Herbicidal ratio of 90% or more (almost completely withered)),4 (Herbicidal ratio of 70% or more and less than 90%),5 (Herbicidal ratio of 90% or more (almost completely withered)),0 (Herbicidal ratio of 5% or less (almost no effect)),4 (Herbicidal ratio of 70% or more and less than 90%),2 (Herbicidal ratio of 20% or more and less than 40%),0 (Herbicidal ratio of 5% or less (almost no effect)),0 (Herbicidal ratio of 5% or less (almost no effect)),4 (Herbicidal ratio of 70% or more and less than 90%),3 (Herbicidal ratio of 40% or more and less than 70%),4 (Herbicidal ratio of 70% or more and less than 90%),0 (Herbicidal ratio of 5% or less (almost no effect)),3 (Herbicidal ratio of 40% or more and less than 70%),0 (Herbicidal ratio of 5% or less (almost no effect)),0 (Herbicidal ratio of 5% or less (almost no effect)),5 (Herbicidal ratio of 90% or more (almost completely withered)),2 (Herbicidal ratio of 20% or more and less than 40%),"effect on crop, b (Zea mays) (Zea mays): 0 (Herbicidal ratio of 5% or less (almost no effect)); effect on crop, g (Brassica campestris L.) (Brassica campestris L.): 2 (Herbicidal ratio of 20% or more and less than 40%)"
